Like-named read-outs stand apart in the source and are kept apart here. Starred links: 1 amine or outer side, 2 acyl side, 3 side chain; linkers in the order of their positions; H or OH if unused. Non-standard residues stand in square brackets, D forms with d. Residues, ends and D or L forms follow the SMILES beside them. X1 = N[C@@H](Cc1ccccc1)CN(CC(=O)[*:2])[*:1]
Columns and labels:
Design in all cases: dose or concentration left out as unconfirmed
CXCR3B = biological target: T1, CXCR3B (Homo sapiens, UniProt P49682); assay: Figure S2a opioid peptide screen on chemokine receptors; format: cell-based
T1 construct: expressed in transfected cells; host or cells: U87 cells
T1 sequence (P49682 1-415 isoform P49682-2): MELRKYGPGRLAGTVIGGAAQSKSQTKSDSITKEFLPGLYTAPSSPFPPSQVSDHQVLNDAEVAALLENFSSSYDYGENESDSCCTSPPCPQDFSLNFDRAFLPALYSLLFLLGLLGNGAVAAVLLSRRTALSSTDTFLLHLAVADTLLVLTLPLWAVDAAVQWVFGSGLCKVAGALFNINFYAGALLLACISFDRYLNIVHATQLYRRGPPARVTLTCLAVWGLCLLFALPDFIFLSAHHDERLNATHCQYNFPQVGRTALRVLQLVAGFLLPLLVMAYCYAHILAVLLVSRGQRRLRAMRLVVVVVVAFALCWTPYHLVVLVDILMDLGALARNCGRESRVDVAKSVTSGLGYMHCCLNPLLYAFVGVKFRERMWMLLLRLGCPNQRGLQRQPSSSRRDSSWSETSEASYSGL

CCR4 = biological target: T2, CCR4 (Homo sapiens, UniProt P51679); assay: as above; format: cell-based
T2 construct: expressed in transfected cells
T2 sequence (P51679 1-360): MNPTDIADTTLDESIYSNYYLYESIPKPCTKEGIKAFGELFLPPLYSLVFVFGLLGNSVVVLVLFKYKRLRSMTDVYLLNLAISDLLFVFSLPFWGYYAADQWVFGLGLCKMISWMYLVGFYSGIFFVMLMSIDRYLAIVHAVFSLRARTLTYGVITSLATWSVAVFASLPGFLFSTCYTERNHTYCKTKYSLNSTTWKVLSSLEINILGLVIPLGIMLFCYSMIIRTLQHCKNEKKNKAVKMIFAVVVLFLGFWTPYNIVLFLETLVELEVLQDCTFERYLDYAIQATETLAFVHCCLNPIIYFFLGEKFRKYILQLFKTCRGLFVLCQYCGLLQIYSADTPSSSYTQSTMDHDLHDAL

CCR6 = biological target: T3, CCR6 (Homo sapiens, UniProt P51684); assay: as above; format: cell-based
T3 construct: expressed in transfected cells
T3 sequence (P51684 1-374): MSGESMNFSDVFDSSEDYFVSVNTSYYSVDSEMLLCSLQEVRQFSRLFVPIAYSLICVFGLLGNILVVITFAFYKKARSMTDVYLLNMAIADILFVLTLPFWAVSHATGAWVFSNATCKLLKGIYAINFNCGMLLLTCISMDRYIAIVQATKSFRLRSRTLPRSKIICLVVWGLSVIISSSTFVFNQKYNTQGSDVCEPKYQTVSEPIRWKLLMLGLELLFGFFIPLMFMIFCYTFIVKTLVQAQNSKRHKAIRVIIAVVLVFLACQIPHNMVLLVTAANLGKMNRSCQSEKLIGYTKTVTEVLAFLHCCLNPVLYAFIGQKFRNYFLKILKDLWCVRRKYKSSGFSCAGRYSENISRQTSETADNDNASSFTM

CCR1 = biological target: T4, CCR1 (Homo sapiens, UniProt P32246); assay: as above; format: cell-based
T4 construct: expressed in transfected cells
T4 sequence (P32246 1-355): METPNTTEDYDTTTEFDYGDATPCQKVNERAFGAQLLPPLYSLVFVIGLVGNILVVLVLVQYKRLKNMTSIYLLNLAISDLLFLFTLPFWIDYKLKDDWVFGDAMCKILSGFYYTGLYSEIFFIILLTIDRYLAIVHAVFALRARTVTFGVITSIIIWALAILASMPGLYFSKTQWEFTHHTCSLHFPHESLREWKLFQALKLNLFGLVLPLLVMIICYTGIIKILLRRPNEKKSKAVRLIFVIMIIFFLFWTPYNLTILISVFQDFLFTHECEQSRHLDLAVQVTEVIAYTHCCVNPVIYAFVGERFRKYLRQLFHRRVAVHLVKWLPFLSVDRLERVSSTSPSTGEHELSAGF

CXCR4 = biological target: T5, CXCR4 (Homo sapiens, UniProt P61073); assay: cell-based; conditions: Figure S2a, read-out: CXCR4 activity, ctrl+ = 100
T5 construct: expressed in transfected cells; host or cells: U87, transient cotransfection of pNBe vectors

CCR5 = biological target: T6, CCR5 (Homo sapiens, UniProt P51681); assay: Figure S2a opioid peptide screen on chemokine receptors; format: cell-based
T6 construct: expressed in transfected cells

CCR10 = biological target: T7, CCR10 (Homo sapiens, UniProt P46092); assay: as above; format: cell-based
T7 construct: expressed in transfected cells
T7 sequence (P46092 1-362): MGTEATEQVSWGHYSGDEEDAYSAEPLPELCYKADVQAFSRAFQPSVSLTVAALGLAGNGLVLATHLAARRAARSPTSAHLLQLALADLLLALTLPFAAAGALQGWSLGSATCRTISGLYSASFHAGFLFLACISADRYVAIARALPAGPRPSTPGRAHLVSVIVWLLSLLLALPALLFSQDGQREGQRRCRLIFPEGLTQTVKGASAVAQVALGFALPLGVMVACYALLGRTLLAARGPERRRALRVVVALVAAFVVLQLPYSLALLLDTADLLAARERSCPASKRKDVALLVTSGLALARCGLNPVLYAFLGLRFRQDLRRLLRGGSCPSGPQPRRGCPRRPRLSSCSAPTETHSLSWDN

CCR8 = CCR8 (Homo sapiens, UniProt P51685); assay: as above; conditions: read-out: CCR8 activity, ctrl+ = 100, Figure S2a
[1] = replicate 1, read-out: CXCR3B activity, ctrl+ = 100
[2] = replicate 2, read-out: CXCR3B activity, ctrl+ = 100
[3] = replicate 3, read-out: CXCR3B activity, ctrl+ = 100
[4] = replicate 1, read-out: CCR4 activity, ctrl+ = 100
[5] = replicate 2, read-out: CCR4 activity, ctrl+ = 100
[6] = replicate 3, read-out: CCR4 activity, ctrl+ = 100
[7] = replicate 1, read-out: CCR6 activity, ctrl+ = 100
[8] = replicate 2, read-out: CCR6 activity, ctrl+ = 100
[9] = replicate 3, read-out: CCR6 activity, ctrl+ = 100
[10] = replicate 1, read-out: CCR1 activity, ctrl+ = 100
[11] = replicate 2, read-out: CCR1 activity, ctrl+ = 100
[12] = replicate 3, read-out: CCR1 activity, ctrl+ = 100
[13] = replicate 1, read-out: CCR5 activity, ctrl+ = 100
[14] = replicate 2, read-out: CCR5 activity, ctrl+ = 100
[15] = replicate 3, read-out: CCR5 activity, ctrl+ = 100
[16] = replicate 1, read-out: CCR10 activity, ctrl+ = 100
[17] = replicate 2, read-out: CCR10 activity, ctrl+ = 100
[18] = replicate 3, read-out: CCR10 activity, ctrl+ = 100

T5 sequence (P61073 whole entry): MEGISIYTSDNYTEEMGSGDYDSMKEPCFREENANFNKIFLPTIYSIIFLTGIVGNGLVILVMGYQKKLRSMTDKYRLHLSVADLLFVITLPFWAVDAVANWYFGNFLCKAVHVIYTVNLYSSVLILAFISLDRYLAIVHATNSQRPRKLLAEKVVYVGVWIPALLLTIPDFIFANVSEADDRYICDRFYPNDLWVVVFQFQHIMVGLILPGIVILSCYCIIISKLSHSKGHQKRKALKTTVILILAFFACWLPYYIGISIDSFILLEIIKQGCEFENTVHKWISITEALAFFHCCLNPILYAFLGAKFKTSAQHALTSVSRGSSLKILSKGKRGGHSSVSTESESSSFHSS
CCR8, sequence (P51685 whole entry): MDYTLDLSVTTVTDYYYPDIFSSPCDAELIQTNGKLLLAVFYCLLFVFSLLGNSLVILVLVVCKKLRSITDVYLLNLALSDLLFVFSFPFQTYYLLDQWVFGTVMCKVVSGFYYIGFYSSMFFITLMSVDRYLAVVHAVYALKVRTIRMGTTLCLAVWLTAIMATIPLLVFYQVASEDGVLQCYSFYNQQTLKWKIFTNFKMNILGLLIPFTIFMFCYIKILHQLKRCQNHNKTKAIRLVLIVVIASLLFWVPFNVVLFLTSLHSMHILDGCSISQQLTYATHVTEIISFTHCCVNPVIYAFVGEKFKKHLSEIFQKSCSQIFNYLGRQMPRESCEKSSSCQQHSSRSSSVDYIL
T6 sequence (P51681 whole entry): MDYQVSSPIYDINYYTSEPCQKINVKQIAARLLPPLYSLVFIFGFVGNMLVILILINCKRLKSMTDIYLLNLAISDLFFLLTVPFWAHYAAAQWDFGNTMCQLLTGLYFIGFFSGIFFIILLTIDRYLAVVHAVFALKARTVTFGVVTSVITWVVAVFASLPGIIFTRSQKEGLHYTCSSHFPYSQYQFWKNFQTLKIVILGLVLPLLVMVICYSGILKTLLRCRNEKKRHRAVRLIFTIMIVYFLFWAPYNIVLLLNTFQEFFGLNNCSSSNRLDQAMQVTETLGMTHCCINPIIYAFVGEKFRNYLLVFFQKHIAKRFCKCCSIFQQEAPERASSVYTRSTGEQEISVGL

SMILES	activation (CXCR3B; [1])	activation (CXCR3B; [2])	activation (CXCR3B; [3])	activation (CCR4; [4])	activation (CCR4; [5])	activation (CCR4; [6])	activation (CCR6; [7])	activation (CCR6; [8])	activation (CCR6; [9])	activation (CCR1; [10])	activation (CCR1; [11])	activation (CCR1; [12])	activation (CXCR4; replicate 1)	activation (CXCR4; replicate 2)	activation (CCR5; [13])	activation (CCR5; [14])	activation (CCR10; [16])	activation (CCR10; [17])	activation (CCR8; replicate 1)	activation (CCR8; replicate 2)	also measured
CC(C)C[C@H](NC(=O)[C@H](Cc1ccccc1)NC(=O)CNC(=O)CNC(=O)[C@@H](N)Cc1ccc(O)cc1)C(=O)N[C@@H](CCCN=C(N)N)C(=O)N[C@@H](CCCN=C(N)N)C(=O)N[C@@H](CCC(N)=O)C(=O)N[C@@H](Cc1ccccc1)C(=O)N[C@@H](CCCCN)C(=O)N[C@H](C(=O)N[C@H](C(=O)N[C@H](C(=O)O)[C@@H](C)O)C(C)C)C(C)C [Dynorphin B]	-3.84%	-0.0101%	0.918%	-1.26%	-2.57%	5.93%	-0.194%	-0.375%	-3.12%	-23.7%	-13.7%	27.5%	-12.2%	7.15%	0.97%	0.0962%	-1.41%	-7.38%	2.83%	-25.3%	activation (CXCR4; replicate 3): -6.95%; activation (CCR5; [15]): 1.82%; activation (CCR10; [18]): 5.94%; activation (CCR8; replicate 3): 18.8%
NC(=O)[C@H](Cc1ccccc1)NC(=O)[C@H](Cc1c[nH]c2ccccc12)NC(=O)[C@@H]1CCCN1C(=O)[C@@H](N)Cc1ccc(O)cc1 [Endomorphin-1]	-0.0115%	13%	–	0.589%	-1.89%	–	0.653%	2.69%	–	3.57%	-19.2%	–	36.3%	16.8%	0.726%	-0.866%	-5.29%	7.53%	-25.5%	19.4%	–
C[C@H](NC(=O)CNC(=O)[C@@H](NC(=O)[C@H](Cc1ccccc1)NC(=O)CNC(=O)CNC[C@@H](N)Cc1ccccc1)[C@@H](C)O)C(=O)N[C@@H](CCCNC(=N)N)C(=O)N[C@@H](CCCCN)C(=O)N[C@@H](CO)C(=O)N[C@@H](C)C(=O)N[C@@H](CCCNC(=N)N)C(=O)N[C@@H](CCCCN)C(N)=O [FG Nociceptin 1-13] (H-[X1]GFTGARKSARK-NH2)	-0.717%	1.26%	8.05%	-0.803%	-1.43%	-2.08%	0.145%	-0.683%	5.07%	5.65%	-10.1%	-16.6%	1.4%	-4.91%	-0.325%	0.224%	-1.11%	-2.39%	-24.5%	3.75%	activation (CXCR4; replicate 3): 27.5%; activation (CCR5; [15]): 0.582%; activation (CCR10; [18]): 7.95%; activation (CCR8; replicate 3): 4.53%
C[C@H](NC(=O)CNC(=O)[C@@H](NC(=O)[C@H](Cc1ccccc1)NC(=O)CNC(=O)CNC(=O)[C@@H](N)Cc1ccccc1)[C@@H](C)O)C(=O)N[C@@H](CCCNC(=N)N)C(=O)N[C@@H](CCCCN)C(=O)N[C@@H](CO)C(=O)N[C@@H](C)C(=O)N[C@@H](CCCNC(=N)N)C(=O)N[C@@H](CCCCN)C(N)=O [Nociceptin 1-13]	-2.86%	1.14%	7.41%	-0.0637%	0.246%	0.411%	0.552%	-0.975%	-0.351%	-0.621%	1.74%	-35.9%	20.2%	-3.76%	-0.291%	-0.592%	2.26%	-5.16%	-35.6%	-2.22%	activation (CXCR4; replicate 3): 28.2%; activation (CCR5; [15]): 0.907%; activation (CCR10; [18]): 3.57%; activation (CCR8; replicate 3): 6.11%
CC(C)C[C@H](NC(=O)[C@H](CCCCN)NC(=O)[C@H](CCCN=C(N)N)NC(=O)[C@H](C)NC(=O)[C@H](CO)NC(=O)[C@H](CCCCN)NC(=O)[C@H](CCCN=C(N)N)NC(=O)[C@H](C)NC(=O)CNC(=O)[C@@H](NC(=O)[C@H](Cc1ccccc1)NC(=O)CNC(=O)CNC(=O)[C@@H](N)Cc1ccccc1)[C@@H](C)O)C(=O)N[C@@H](C)C(=O)N[C@@H](CC(N)=O)C(=O)N[C@@H](CCC(N)=O)C(=O)O [Nociceptin]	-0.23%	-6.64%	–	-2.47%	-0.825%	–	-0.76%	0.601%	–	-16.6%	-34.2%	–	3.24%	-19.8%	1.59%	-0.199%	-2.56%	-4.7%	27.1%	-5.76%	–

Source: paper PMC7305236, “The atypical chemokine receptor ACKR3/CXCR7 is a broad-spectrum scavenger for opioid peptides” (Nature Communications, 2020)
